Results reported in article PMC6695191 (PLoS Neglected Tropical Diseases, 2019).
Where two headings read alike, the source gives them in different places.

Tests used:
[1] = tested on: L. donovani intracellular amastigotes; assay: L. donovani intracellular amastigote assay in PMA-differentiated THP-1 macrophages (Giemsa counting); format: cell-based, Leishmania donovani; details: for IC50: L. donovani in THP-1 macrophages, 120 h incubation, mean ± SD, n = 2 biological replicates; for Selectivity Index: CC50 THP-1/IC50 intracellular amastigotes
Description: (§1) Leishmania donovani axenic cultures (strain MHOM/ET/67/HU3) were maintained in M199 medium (pH 7.4) supplemented with 10% heat-inactivated fetal calf serum (FCS) and grown at 28°C [22]. Human leukemia cells (THP-1 cell line) were maintained in RPMI-1640 (FCS 10%) and grown at 37°C and 5% CO2. Stock solutions of compounds 1–4 were prepared in 100% DMSO at 10 mM and tested in 2-fold serial dilutions (10 concentrations) in 96-well flat-bottom microtiter plates.
In the intracellular amastigote assay, THP-1 cells were seeded at 2 × 10^4/well (RPMI-1640, 100 μL) with phorbol 12-myristate 13-acetate (PMA) at 20 ng/mL for differentiation into macrophages. After incubation for 72 hours (5% CO2, 37°C), medium was aspirated and late-stage promastigotes were added (2 × 10^5/well, 100 μL). After 24 hours of incubation, medium was aspirated to clear extracellular parasites, compounds were added in serial dilutions (100 μL) and the plates were incubated for 120 hours. All plates included negative controls (100% parasite growth) and miltefosine as a positive control. Following incubation, medium was removed and the cells were fixed in methanol and stained with Giemsa. The average number of intracellular amastigotes per THP-1 cell was determined using an inverted microscope and a cell counter. Growth inhibition was expressed as a percentage of the average number of amastigotes per macrophage in the negative control wells. IC50 values were determined as described above for the promastigote assay.

[2] = tested on: L. donovani promastigotes; assay: L. donovani promastigote assay (Alamar Blue); format: cell-based, Leishmania donovani; details: 72 h incubation at 28°C, mean ± SD, n = 2 biological replicates
Description: as §1
For the promastigote assay, L. donovani cells from axenic cultures in logarithmic growth were seeded at 1 x 10^5/well (M199, 80 μL) and compounds were added in serial dilutions (20 μL). All plates included negative controls (100% parasite growth) and miltefosine as a positive control. After 72 hours of incubation at 28°C, 10 μL of Alamar Blue (12.5 mg resazurin/100 mL distilled water) was added to each well and then the plates were incubated for 3 hours. This indicator of cell viability permeates into viable parasites, where it is reduced by NADPH and NADH enzymes to the highly fluorescent compound resorufin [24]. Following incubation, the plates were read with a microplate fluorometer under an excitation wave length of 536 nm and an emission wave length of 588 nm. […] If the test compound is active against L. donovani, the number of viable parasites is reduced, thus resulting a decrease in fluorescence. Growth inhibition was expressed as a percentage of the fluorescence of the negative control wells. IC50 values were determined using SigmaPlot. Dose-response curves were fitted using log (inhibitor concentration) vs. normalized response (between 0% and 100%) with variable slope, and IC50 values were automatically calculated.

Escovopsis sp. = assay: Antagonist bioassay of compounds and fractions against Escovopsis on ISP-2 agar; format: cell-based; details: 100 μg compound, 21 days
Description: (§2) Each bacterium-fungus and compound-fungal challenge was replicated two times on ISP-2 agar. Bacteria strains were initially screened against Escovopsis sp. ICBG1251. Bacteria were placed in the center of ISP-2 agar Petri dishes and grown alone during 7 days; fungal strains were then point-inoculated near the edge of the culture (microbial strains distant from each other around 3 cm). Two microliters of compounds (100 μg) were placed in the center of Petri dishes and fungal strains were then point-inoculated near the edge of the plate. The positive control used was the miconazole. Challenges were monitored each 7 days and inhibition zone was measure after 21 days. Four different fungal strains were used for testing the pure compounds: Escovopsis sp. ICBG711 (from Trachymyrmex colony), Escovopsis sp. ICBG740 (from Acromyrmex colony), Escovopsis sp. ICBG1251 (from Atta colony) and Trichoderma sp. ICBG1100 (from attine colony).

Trichoderma sp. ICBG1100 = assay: Antagonist bioassay of compounds against Trichoderma on ISP-2 agar; format: cell-based; details: 100 μg compound, 21 days of growth at 28°C
Description: as §2

[3] = Selectivity assay on THP-1 macrophages (Alamar Blue); format: cell-based; details: human
Description: Leishmania donovani axenic cultures (strain MHOM/ET/67/HU3) were maintained in M199 medium (pH 7.4) supplemented with 10% heat-inactivated fetal calf serum (FCS) and grown at 28°C [22].
After incubation for 72 hours (5% CO2, 37°C), medium was aspirated, compounds were added in serial dilutions (100 μL) and the plates were incubated for 120 h. All plates included negative controls and doxorubicin as a positive control. Following incubation, 10 μL of Alamar Blue was added to each well and then the plates were incubated for 3 hours. […] Growth inhibition was expressed as a percentage of the fluorescence of the negative control wells. IC50 values were determined as described above for the promastigote and amastigote assays.

[4] = THP-1 macrophages, 120 h incubation, mean ± SD, n = 2 biological replicates, read-out: CC50 THP-1

| SMILES | IC50 ([1]; Leishmania donovani) [µM] | IC50 ([2]; Leishmania donovani) [µM] | CC50 at 120 h [3, 4] [µM] | Selectivity Index [1] | other results |
| --- | --- | --- | --- | --- | --- |
| C/C=C(\C)[C@H](O)[C@H](C)/C=C(C)/C=C/C/C(C)=C/Cc1nc(OC)cc(O)c1C [Compound 1, Mer-A2026B] | – | – | – | – | IC50 [1]: 49.9 ± 7.01 µM; IC50 [2]: 35.9 ± 1.83 µM; Antagonist activity against four different Escovopsis strains compared to compounds 2–4 (Escovopsis sp.): higher antagonist activity; Activity against Trichoderma sp. (Trichoderma sp. ICBG1100): active |
| C/C=C(\C)[C@H](O)[C@H](C)/C=C(C)/C=C/C/C(C)=C/Cc1nc(OC)c(OC)c(O)c1C [Compound 2, piericidin-A1] | > 64 | 38.4 ± 4.63 | > 64 | – | – |
| CO[C@@H]1C[C@@H](C[C@H]2CC[C@H](C)[C@H]([C@@H](C)C(=O)O)O2)O[C@]2(O[C@](C)([C@H]3CC[C@@](C)([C@@H]4O[C@@H]([C@H]5O[C@@](O)(CO)[C@H](C)C[C@@H]5C)C[C@@H]4C)O3)C[C@H]2C)[C@@H]1C [Compound 3, nigericin] | 0.129 ± 0.008 | 0.284 ± 0.072 | – | 88.91 | CC50 at 120 h [3]: 11.5 ± 0.68 µM |
| CC[C@@H]1C[C@H]2CC[C@H](O2)[C@H](C)C(=O)O[C@@H](C)C[C@@H]2CC[C@@H](O2)[C@@H](C)C(=O)O[C@H](CC)C[C@H]2CC[C@H](O2)[C@H](C)C(=O)O[C@@H](C)C[C@@H]2CC[C@@H](O2)[C@@H](C)C(=O)O1 [Compound 4, dinactin] | 0.018 ± 0.003 | 0.032 ± 0.005 | 11.8 ± 1.57 | 656.11 | – |
| COc1cccc2c1C(=O)c1c(O)c3c(c(O)c1C2=O)C[C@@](O)(C(=O)CO)C[C@@H]3O[C@H]1C[C@H](N)[C@H](O)[C@H](C)O1 [Doxorubicin, reference compound] | – | – | – | – | CC50 at 120 h ([3]; THP-1 cells differentiated into macrophages with PMA, THP-1 macrophages, 120 h incubation, mean ± SD, n = 2 biological replicates, read-out: CC50 THP-1): 0.571 ± 0.068 µM |
| CCCCCCCCCCCCCCCCOP(=O)([O-])OCC[N+](C)(C)C [Miltefosine, reference compound] | 5.8 ± 0.59 | 4.74 ± 0.25 | – | – | – |
